Patent publication US10369123B2, “Perk activator for the treatment of neurodegenerative diseases” (DEUTSCHES ZENTRUM FÜR NEURODEGENERATIVE ERKRANKUNGEN E.V. …, priority 2014, dated 2019)

Tested on: LUHMES cells
Assay: Identification of non-toxic, effective concentrations of PERK modulators (MTT viability, pEIF2A Western blot)
Format: cell-based, human
Conditions: for non-toxic concentration effectively modifying EIF2A phosphorylation: LUHMES neurons, 48 h
Protocol: Nunc™ Nunclon™ Delta 6-well (for protein and mRNA) or 48-well (for cell assays) plates (Thermo Fisher Scientific, Waltham, Mass., USA) were coated with 100 μg/ml poly-L-lysine (Sigma-Aldrich, St. Louis, Mo., USA) and 5 μg/ml fibronectin (Sigma-Aldrich). […] They were then differentiated for 8 days in a medium of DMEM/F12 (Sigma-Aldrich), 1 μg/ml tetracycline, […] and 490 μg/ml dbcAMP into post-mitotic neurons with a dopaminergic phenotype (Lotharius et al. 2005). […] 20 μg of protein (unless indicated otherwise) were adjusted to equal concentrations between samples by dilution with M-PER and subsequently heated at 95° C. for 5 minutes with Roti®-Load 1 (Carl Roth). SDS-PAGE was performed using Any kD™ Mini-PROTEAN® TGX™ Gels (BioRad, Berkeley, Calif., USA) in a tris-glycine running buffer. The protein was blotted onto PVDF membrane (BioRad) at 70 V for 65 minutes on ice. The membrane was blocked with 1× Roti®-Block solution (Carl Roth) for 1 h and then incubated at 4° C. overnight under gentle shaking with the primary antibody (see Table 5) in TBS with 5% BSA (Cell Signaling Technology) and 0.05% TWEEN (Sigma-Aldrich). Thiazolyl Blue Tetrazolium […] (Sigma Aldrich) was dissolved in sterile PBS to a concentration of 5 mg/ml. […] The 48-well culture plate was then incubated at 37° C. for 1 h, the medium removed completely and frozen at −80° C. for 1 h. The plate was then thawed, 300 μl DMSO (AppliChem, Darmstadt, Germany) was added per well and the plate was shaken to ensure complete dissolution of the violet crystals. 100 μl from each well were transferred to a new 96-well plate and the absorbance was read with the FLUOstar Omega (BMG Labtech) platereader at a wavelength of 590 nm (reference wave length 630 nm). The data was analyzed using the MARS Data Analysis Software (BMG Labtech) and Prism 6.

| SMILES | non-toxic concentration effectively modifying EIF2A phosphorylation [nM] | doses at which detrimental effects of UPR overactivation were seen (in vitro) [µM] |
| --- | --- | --- |
| CCN(CC)CCC(=O)N1N=C(c2c(-c3ccccc3)c3cc(Br)ccc3[nH]c2=O)CC1c1ccc(Br)cc1 (stereo not drawn) [CCT020312, 6-bromo-3-[5-(4-bromo-phenyl)-1-(3-diethylamino-propionyl)-4,5-dihydro-1H-pyrazol-3-yl]-4-phenyl-1H-quinolin-2-one] | 200 | > 3 |
| Cn1cc(-c2ccc3c(c2)CCN3C(=O)Cc2cccc(C(F)(F)F)c2)c2c(N)ncnc21 [GSK2606414, reference compound] | 300 |  |
